Reference: patent US11590116B2 (THERAVANCE BIOPHARMA R&D IP, LLC, priority 2019, dated 2023)

Tests used:
[1] = molecular target: T1, recombinant human ALK5 (TGF-βR1) protein (Homo sapiens, UniProt P36897); experiment: Biochemical ALK5 (TGF-βR1) assay to measure pKi (LANCE Ultra ULight kinase assay); details: apparent pKi from pIC50 by Cheng-Prusoff, read-out: ALK5 pKi (converted)
T1 construct: purchased Life Technologies PR9075A
T1 sequence (P36897 34-503): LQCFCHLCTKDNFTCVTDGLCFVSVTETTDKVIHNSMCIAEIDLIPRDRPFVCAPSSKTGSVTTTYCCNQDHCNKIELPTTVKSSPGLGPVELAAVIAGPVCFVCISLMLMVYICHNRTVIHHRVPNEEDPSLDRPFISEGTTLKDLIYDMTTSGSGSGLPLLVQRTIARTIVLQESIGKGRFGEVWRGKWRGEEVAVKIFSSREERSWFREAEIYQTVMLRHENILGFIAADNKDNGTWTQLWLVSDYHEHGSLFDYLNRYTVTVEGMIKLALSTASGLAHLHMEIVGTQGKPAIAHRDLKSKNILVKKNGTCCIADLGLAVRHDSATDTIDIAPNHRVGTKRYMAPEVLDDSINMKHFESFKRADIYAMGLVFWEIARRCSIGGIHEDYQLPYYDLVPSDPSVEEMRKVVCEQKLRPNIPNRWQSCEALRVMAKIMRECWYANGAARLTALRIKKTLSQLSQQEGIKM
Outline: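 After a 60 min room-temperature preincubation of ALK5 with compound, phosphorylation proceeds 60 min at 37 °C on ATP addition (125 μM as 5× stock). Detection: Eu-labelled phospho-Thr1342 Topo IIα antibody in EDTA buffer, pH 7.0; emission 665 nm.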

[2] = test system: TGF-β-stimulated SMAD3 phosphorylation in BEAS-2B cells; experiment: Cellular ALK5 potency assay, inhibition of TGF-β stimulated pSMAD3 formation in BEAS-2B cells; type: cell-based; details: Homo sapiens; inhibition of TGF-β stimulated pSMAD3 formation, BEAS-2B cells; read-out: BEAS2B pIC50 (converted)
Outline: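 SMAD3 phosphorylation was measured by AlphaLISA after 30 min TGF-β stimulation (10 ng/mL final) of BEAS-2B cells preincubated 1 h with compound at 37 °C. Results given as pIC50.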

SMILES	Ki [1]	IC50 [2]
Cc1cccc(-c2[nH]cnc2-c2ccc3ncc(-c4nc(C(=O)OC5CCNCC5)cs4)cc3c2)n1 [Compound 742, 4-piperidyl 2-[6-[5-(6-methyl-2-pyridyl)-1H-imidazol-4-yl]-3-quinolyl]thiazole-4-carboxylate]	0.0398 to 0.316 nM	25.1 to 158 nM
Cc1cccc(-c2[nH]cnc2-c2ccc3ncc(-c4nc(C(=O)O[C@@H]5CCNC5)cs4)cc3c2)n1 [Compound 743, [(3R)-pyrrolidin-3-yl]2-[6-[5-(6-methyl-2-pyridyl)-1H-imidazol-4-yl]-3-quinolyl]thiazole-4-carboxylate]	0.0398 to 0.316 nM	25.1 to 158 nM
Cc1cccc(-c2[nH]cnc2-c2ccc3ncc(-c4nc(C(=O)O[C@@H]5CCN(C)C5)cs4)cc3c2)n1 [Compound 744, [(3R)-1-methylpyrrolidin-3-yl] 2-[6-[5-(6-methyl-2-pyridyl)-1H-imidazol-4-yl]-3-quinolyl]thiazole-4-carboxylate]	0.0398 to 0.316 nM	25.1 to 158 nM
Cc1cccc(-c2[nH]cnc2-c2ccc3ncc(-c4nc(C(=O)OC5CNC5)cs4)cc3c2)n1 [Compound 745, azetidin-3-yl 2-[6-[5-(6-methyl-2-pyridyl)-1H-imidazol-4-yl]-3-quinolyl]thiazole-4-carboxylate]	0.0398 to 0.316 nM	25.1 to 158 nM
Cc1cccc(-c2[nH]cnc2-c2ccc3ncc(-c4nc(C(=O)OCC5CNC5)cs4)cc3c2)n1 [Compound 746, azetidin-3-ylmethyl 2-[6-[5-(6-methyl-2-pyridyl)-1H-imidazol-4-yl]-3-quinolyl]thiazole-4-carboxylate]	< 0.0316 nM	25.1 to 158 nM
Cc1cccc(-c2[nH]cnc2-c2ccc3ncc(-c4nc(C(=O)O[C@H]5CCN(C)C5)cs4)cc3c2)n1 [Compound 747, [(3S)-1-methylpyrrolidin-3-yl] 2-[6-[5-(6-methyl-2-pyridyl)-1H-imidazol-4-yl]-3-quinolyl]thiazole-4-carboxylate]	0.0398 to 0.316 nM	< 20 nM
Cc1cccc(-c2[nH]cnc2-c2ccc3ncc(-c4nc(C(=O)O[C@H]5CCNC5)cs4)cc3c2)n1 [Compound 748, (S)-pyrrolidin-3-yl 2-(6-(5-(6-methylpyridin-2-yl)-1H-imidazol-4-yl)quinolin-3-yl)thiazole-4-carboxylate]	0.0398 to 0.316 nM	25.1 to 158 nM
Cc1cccc(-c2[nH]cnc2-c2ccc3ncc(-c4csc(C(=O)O[C@@H]5CCNC5)c4)cc3c2)n1 [Compound 749, [(3R)-pyrrolidin-3-yl] 4-[6-[5-(6-methyl-2-pyridyl)-1H-imidazol-4-yl]-3-quinolyl]thiophene-2-carboxylate]	< 0.0316 nM	25.1 to 158 nM
Cc1cccc(-c2[nH]cnc2-c2ccc3ncc(-c4csc(C(=O)O[C@@H]5CCN(C)C5)c4)cc3c2)n1 [Compound 750, [(3R)-1-methylpyrrolidin-3-yl] 4-[6-[5-(6-methyl-2-pyridyl)-1H-imidazol-4-yl]-3-quinolyl]thiophene-2-carboxylate]	0.0398 to 0.316 nM	< 20 nM
Cc1cccc(-c2[nH]cnc2-c2ccc3ncc(-c4csc(C(=O)OC5CCNCC5)c4)cc3c2)n1 [Compound 751, 4-piperidyl 4-[6-[5-(6-methyl-2-pyridyl)-1H-imidazol-4-yl]-3-quinolyl]thiophene-2-carboxylate]	< 0.0316 nM	25.1 to 158 nM
Cc1cccc(-c2[nH]cnc2-c2ccc3ncc(-c4csc(C(=O)OC5CNC5)c4)cc3c2)n1 [Compound 752, azetidin-3-yl 4-[6-[5-(6-methyl-2-pyridyl)-1H-imidazol-4-yl]-3-quinolyl]thiophene-2-carboxylate]	0.0398 to 0.316 nM	25.1 to 158 nM
Cc1cccc(-c2[nH]cnc2-c2ccc3ncc(-c4csc(C(=O)OCC5CNC5)c4)cc3c2)n1 [Compound 753, azetidin-3-ylmethyl 4-(6-(5-(6-methylpyridin-2-yl)-1H-imidazol-4-yl)quinolin-3-yl)thiophene-2-carboxylate]	0.0398 to 0.316 nM	25.1 to 158 nM
Cc1cccc(-c2[nH]cnc2-c2ccc3ncc(-c4csc(C(=O)O[C@H]5CCNC5)c4)cc3c2)n1 [Compound 754, [(3S)-pyrrolidin-3-yl] 4-[6-[5-(6-methyl-2-pyridyl)-1H-imidazol-4-yl]-3-quinolyl]thiophene-2-carboxylate]	0.0398 to 0.316 nM	25.1 to 158 nM
Cc1cccc(-c2[nH]cnc2-c2ccc3ncc(-c4csc(C(=O)O[C@H]5CCN(C)C5)c4)cc3c2)n1 [Compound 755, [(3S)-1-methylpyrrolidin-3-yl] 4-[6-[5-(6-methyl-2-pyridyl)-1H-imidazol-4-yl]-3-quinolyl]thiophene-2-carboxylate]	0.0398 to 0.316 nM	< 20 nM
Cc1cccc(-c2[nH]cnc2-c2ccc3ncc(C(=O)OCCN4CCNCC4)cc3c2)n1 [Compound 756, 2-(piperazin-1-yl)ethyl 6-(5-(6-methylpyridin-2-yl)-1H-imidazol-4-yl)quinoline-3-carboxylate]	0.0398 to 0.316 nM	25.1 to 158 nM
Cc1cccc(-c2[nH]cnc2-c2ccc3ncc(C(=O)O[C@H]4CCNC4)cc3c2)n1 [Compound 757, [(3S)-pyrrolidin-3-yl] 6-[5-(6-methyl-2-pyridyl)-1H-imidazol-4-yl]quinoline-3-carboxylate]	0.398 to 3.16 nM	25.1 to 158 nM
Cc1cccc(-c2[nH]cnc2-c2ccc3ncc(C(=O)O[C@@H]4CCN(C)C4)cc3c2)n1 [Compound 758, [(3R)-1-methylpyrrolidin-3-yl] 6-[5-(6-methyl-2-pyridyl)-1H-imidazol-4-yl]quinoline-3-carboxylate]	0.398 to 3.16 nM	25.1 to 158 nM
Cc1cccc(-c2[nH]cnc2-c2ccc3ncc(C(=O)O[C@H]4C[C@@H](N)C4)cc3c2)n1 [Compound 759, (3-aminocyclobutyl) 6-[5-(6-methyl-2-pyridyl)-1H-imidazol-4-yl]quinoline-3-carboxylate]	0.0398 to 0.316 nM	25.1 to 158 nM
Cc1cccc(-c2[nH]cnc2-c2ccc3ncc(C(=O)OC[C@H]4CCCN4)cc3c2)n1 [Compound 760, [(2R)-pyrrolidin-2-yl]methyl 6-[5-(6-methyl-2-pyridyl)-1H-imidazol-4-yl]quinoline-3-carboxylate]	0.398 to 3.16 nM	25.1 to 158 nM
Cc1cccc(-c2[nH]cnc2-c2ccc3ncc(C(=O)OCCC4CNC4)cc3c2)n1 [Compound 761, 2-(azetidin-3-yl)ethyl 6-[5-(6-methyl-2-pyridyl)-1H-imidazol-4-yl]quinoline-3-carboxylate]	0.0398 to 0.316 nM	200 to 1260 nM
Cc1cccc(-c2[nH]cnc2-c2ccc3ncc(C(=O)OC[C@@H]4CCCN4)cc3c2)n1 [Compound 762, [(2S)-pyrrolidin-2-yl]methyl 6-[5-(6-methyl-2-pyridyl)-1H-imidazol-4-yl]quinoline-3-carboxylate]	0.398 to 3.16 nM	25.1 to 158 nM
Cc1cccc(-c2[nH]cnc2-c2ccc3ncc(C(=O)O[C@H]4CC[C@H](N)CC4)cc3c2)n1 [Compound 763, (4-aminocyclohexyl) 6-[5-(6-methyl-2-pyridyl)-1H-imidazol-4-yl]quinoline-3-carboxylate]	0.0398 to 0.316 nM	25.1 to 158 nM
Cc1cccc(-c2[nH]cnc2-c2ccc3ncc(C4=CC[C@H](NC(=O)[C@@H]5CCC(=O)N5)CC4)cc3c2)n1 [Compound 764, (2S)-N-[(1R)-4-[6-[5-(6-methyl-2-pyridyl)-1H-imidazol-4-yl]-3-quinolyl]cyclohex-3-en-1-yl]-5-oxo-pyrrolidine-2-carboxamide]	0.0398 to 0.316 nM	200 to 1260 nM
Cc1cccc(-c2[nH]cnc2-c2ccc3ncc(C(=O)OC[C@H]4CC[C@H](N)CC4)cc3c2)n1 [Compound 765, (4-aminocyclohexyl)methyl 6-[5-(6-methyl-2-pyridyl)-1H-imidazol-4-yl]quinoline-3-carboxylate]	0.0398 to 0.316 nM	25.1 to 158 nM
Cc1cccc(-c2[nH]cnc2-c2ccc3ncc(C(=O)O[C@H]4CC[C@@](C)(N)CC4)cc3c2)n1 [Compound 768, (4-amino-4-methyl-cyclohexyl) 6-[5-(6-methyl-2-pyridyl)-1H-imidazol-4-yl]quinoline-3-carboxylate]	0.0398 to 0.316 nM	25.1 to 158 nM
Cc1cccc(-c2[nH]cnc2-c2ccc3ncc(C(=O)OC[C@H]4CC[C@@H](N)CC4)cc3c2)n1 [Compound 770, (4-aminocyclohexyl)methyl 6-[5-(6-methyl-2-pyridyl)-1H-imidazol-4-yl]quinoline-3-carboxylate]	0.0398 to 0.316 nM	25.1 to 158 nM
Cc1cccc(-c2[nH]cnc2-c2ccc3ncc(C(=O)O[C@H]4CC[C@](C)(N)CC4)cc3c2)n1 [Compound 771, (4-amino-4-methyl-cyclohexyl) 6-[5-(6-methyl-2-pyridyl)-1H-imidazol-4-yl]quinoline-3-carboxylate]	0.0398 to 0.316 nM	25.1 to 158 nM
